The results in this text go back to ChEMBL document CHEMBL5316313, “Discovery of Novel 3-Phenylpiperidine Derivatives Targeting the β-Catenin/B-Cell Lymphoma 9 Interaction as a Single Agent and in Combination with the Anti-PD-1 Antibody for the Treatment of Colorectal Cancer” (J Med Chem, 2023).

Structures are written as SMILES. Activity calls are given as the source filed them. The rule behind the calls is not given here.

The nature of data set [1]: Microsomal stability in human liver microsomes assessed as intrinsic clearance at […] and measured upto 60 mins by LC-MS/MS analysis. It is filed as ADME, Microsome. The following applies: read-out: CLH.
Data set [2] relates to HEK293. Put plainly: Induction of apoptosis in Wnt-independent human HEK293 cells assessed as viable cells at 10 uM incubated for 24 hrs by Annexin V-Alexa Fluor 647/PI staining based flow cytomtery (Rvb=70.5%). It is filed as functional. To be noted: read-out: Activity.
For data set [3], the system named is HEK293. Put plainly: Induction of apoptosis in Wnt-independent human HEK293 cells assessed as viable cells at 20 uM incubated for 24 hrs by Annexin V-Alexa Fluor 647/PI staining based flow cytomtery (Rvb=70.5%). Type of data set: functional. The following applies: read-out: Activity.
The subject of another data set is HCT-116. The data set is described as follows: Induction of apoptosis in Wnt-dependent human HCT-116 cells assessed as early apoptotic cells at 10 uM incubated for 24 hrs by Annexin V-Alexa Fluor 647/PI staining based flow cytomtery (Rvb=14.3%). It is filed as functional.
Data set [4] relates to HEK293. Put plainly: Antiproliferative activity against Wnt-independent human HEK293 cells assessed as cell growth inhibition at 40 uM incubated for 48 hrs by CellTiter-Glo assay. It is filed as functional, cell-based. (In general: Cellular ATP, detected with luciferase, serves as a proxy for viable cell number.)
The next data set has as its target T1, Beta catenin-BCL9 (Mus musculus, UniProt Q02248+Q9D219).
T1 sequence (Q02248 whole entry): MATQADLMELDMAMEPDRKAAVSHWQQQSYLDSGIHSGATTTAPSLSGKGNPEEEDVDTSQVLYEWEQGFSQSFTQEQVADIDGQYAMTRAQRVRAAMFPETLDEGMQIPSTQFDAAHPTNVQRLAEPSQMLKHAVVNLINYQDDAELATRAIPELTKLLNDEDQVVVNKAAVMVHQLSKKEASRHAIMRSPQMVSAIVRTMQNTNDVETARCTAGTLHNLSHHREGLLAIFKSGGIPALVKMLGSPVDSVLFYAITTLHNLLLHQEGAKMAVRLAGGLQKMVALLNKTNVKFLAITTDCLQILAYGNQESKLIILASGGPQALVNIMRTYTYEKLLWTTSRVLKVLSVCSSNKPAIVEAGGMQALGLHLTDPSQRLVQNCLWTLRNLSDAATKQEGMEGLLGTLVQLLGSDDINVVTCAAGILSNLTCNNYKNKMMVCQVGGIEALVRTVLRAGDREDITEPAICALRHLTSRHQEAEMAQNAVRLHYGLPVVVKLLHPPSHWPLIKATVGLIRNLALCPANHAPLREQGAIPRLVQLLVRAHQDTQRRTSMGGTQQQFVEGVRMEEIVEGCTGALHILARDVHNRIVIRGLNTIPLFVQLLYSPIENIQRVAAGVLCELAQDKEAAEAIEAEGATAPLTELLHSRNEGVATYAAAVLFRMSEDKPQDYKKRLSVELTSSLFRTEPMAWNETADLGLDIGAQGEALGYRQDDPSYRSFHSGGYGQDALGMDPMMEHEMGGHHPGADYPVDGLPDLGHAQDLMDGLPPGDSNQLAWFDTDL
T1 sequence (Q9D219 whole entry): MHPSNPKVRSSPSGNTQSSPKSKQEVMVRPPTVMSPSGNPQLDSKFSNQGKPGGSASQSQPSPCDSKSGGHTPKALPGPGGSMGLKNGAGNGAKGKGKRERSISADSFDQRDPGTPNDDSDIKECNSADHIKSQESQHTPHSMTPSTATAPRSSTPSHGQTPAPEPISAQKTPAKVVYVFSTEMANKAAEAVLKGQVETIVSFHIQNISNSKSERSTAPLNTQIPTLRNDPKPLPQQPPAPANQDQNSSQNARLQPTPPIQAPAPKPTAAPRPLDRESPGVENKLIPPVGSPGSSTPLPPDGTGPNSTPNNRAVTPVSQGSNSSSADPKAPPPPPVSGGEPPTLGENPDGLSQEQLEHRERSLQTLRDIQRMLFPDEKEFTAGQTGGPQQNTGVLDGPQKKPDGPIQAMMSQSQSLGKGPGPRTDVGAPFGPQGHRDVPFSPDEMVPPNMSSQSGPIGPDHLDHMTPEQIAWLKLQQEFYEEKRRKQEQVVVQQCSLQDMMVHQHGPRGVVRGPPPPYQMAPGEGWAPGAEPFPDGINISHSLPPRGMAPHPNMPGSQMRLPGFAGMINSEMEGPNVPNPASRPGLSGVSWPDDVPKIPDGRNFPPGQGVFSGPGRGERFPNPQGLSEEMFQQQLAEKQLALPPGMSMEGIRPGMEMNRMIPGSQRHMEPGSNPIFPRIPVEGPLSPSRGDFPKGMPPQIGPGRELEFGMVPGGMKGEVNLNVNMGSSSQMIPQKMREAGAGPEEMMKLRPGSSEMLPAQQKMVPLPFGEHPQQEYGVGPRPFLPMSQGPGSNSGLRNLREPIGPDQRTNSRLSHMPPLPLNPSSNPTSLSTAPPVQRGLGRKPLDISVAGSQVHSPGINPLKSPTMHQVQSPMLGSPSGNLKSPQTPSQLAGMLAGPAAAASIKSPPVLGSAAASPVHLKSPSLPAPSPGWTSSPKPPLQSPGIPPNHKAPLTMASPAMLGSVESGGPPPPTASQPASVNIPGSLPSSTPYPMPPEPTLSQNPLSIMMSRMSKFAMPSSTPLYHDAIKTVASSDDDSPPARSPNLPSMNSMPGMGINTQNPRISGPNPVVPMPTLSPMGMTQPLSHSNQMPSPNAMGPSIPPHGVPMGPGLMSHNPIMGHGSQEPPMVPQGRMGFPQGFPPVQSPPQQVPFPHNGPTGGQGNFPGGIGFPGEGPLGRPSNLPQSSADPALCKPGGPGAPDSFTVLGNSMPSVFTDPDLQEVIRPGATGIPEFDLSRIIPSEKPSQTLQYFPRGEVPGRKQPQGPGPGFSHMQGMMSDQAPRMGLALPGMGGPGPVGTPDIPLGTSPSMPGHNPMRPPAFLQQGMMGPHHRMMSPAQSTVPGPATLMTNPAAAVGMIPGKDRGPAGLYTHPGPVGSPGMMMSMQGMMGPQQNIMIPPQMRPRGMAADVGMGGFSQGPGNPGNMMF
The data set is described as follows: Inhibition of beta-catenin/BCL9 protein-protein interaction in Wnt-dependent BCL9 knockdown mouse CT26 cells assessed as reduction in Axin2 expression level by qRT-PCR assay. Type of data set: cell-based. For orientation: In qPCR the cycle at which signal appears reflects the starting amount.

In data set [5] the test system is CT26. The data set is described as follows: Antitumor activity against mouse CT26 cells xenografted in BALB/c mouse assessed as tumor growth inhibition at 30 mg/kg, ip QD and measured upto 9 days. It is filed as functional. To be noted: CT26, 216 h, time <= 9 day, read-out: TGI.
Data set [6] is described as follows: Toxicity in BALB/c mouse xenografted with mouse CT26 cells assessed as pathological changes in bone marrow at 30 mg/kg, ip QD by hematoxylin and eosin staining based microscopic analysis. Type of data set: organism-based. To be noted: in vivo.
Data set [7] is described as follows: Toxicity in BALB/c mouse xenografted with mouse CT26 cells assessed as pathological changes in lung at 30 mg/kg, ip QD in presence of anti-PD-1 antibody cotreatment at 10 mg/kg,ip BIW by hematoxylin and eosin staining based microscopic analysis. It is filed as organism-based. To be noted: in vivo.
Data set [8] relates to CT26. The data set is described as follows: Antitumor activity in mouse CT26 cells xenografted in BALB/c mouse assessed as increase in GZMB mRNA expression level in tumor at 30 mg/kg, ip QD by qRT-PCR analysis. It is filed as functional, organism-based.

What is called IC50 is the midpoint of a concentration-inhibition curve. Consider `CC(C)c1ccc(-c2cccc(S(=O)(=O)N3CCCC(c4cccc(OC(C)(C)C(=O)NS(=O)(=O)c5ccc(C(F)(F)F)cc5)c4)C3)c2)cc1` (stereo not given), for which the microsomal CLint in data set [1] was determined as 43.2 µL/min/mg. Moreover, the viability at 10 µM in the data set with HEK293 [2] amounted to 70.8%. Besides, the viability at 20 µM with HEK293 [3] is 64.7%. The results for the Activity (with HCT-116; in data set [6]; in [7]) were 16.7%, “Non-Toxic” and “Non-Toxic”, respectively. For the same molecule, the result in the data set with HEK293 [4] was inactive. On Beta catenin-BCL9, the IC50 worked out at 51.6 µM. Further, the inhibition in vivo at 30 mg/kg in the data set with CT26 [5] was found to be 67.6%. Besides, in the data set on CT26 [8], the result was Active.
